Assay results from patent publication US9695155B2, “Herbicidal substituted pyrimidinyloxy benzene compounds” (E. I. DU PONT DE NEMOURS AND COMPANY, priority 2013, dated 2017).

How the values were obtained:
giant foxtail = assay: Test A preemergence; format: in vivo, Setaria faberii; conditions: Setaria faberi, pre-emergence, 240 h, 0 to 100 scale where 0 is no effect and 100 is complete control
Method in brief: (§1)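 Pre- and postemergence greenhouse screen. Soil: loam + sand. Spray carrier: solvent mixture, non-phytotoxic, with surfactant. Post timing at 1–2 leaves, height 2–10 cm. Readout: visual injury on a 0–100 scale roughly 10 days after application, untreated plants as reference.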

lambsquarters = assay: Test C preemergence; format: in vivo, Chenopodium album; conditions: Chenopodium album, pre-emergence, preemergence, read-out: Lambsquarters plant response rating
Method in brief: (§2)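 Whole-plant greenhouse test with surfactant-containing solvent formulation, applied preemergence to sown loam–sand pots or postemergence to 2–18 cm plants. Scored by eye 13 to 15 days on, 0–100 scale.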

kochia = assay: Test C postemergence; format: in vivo, Kochia scoparia; conditions: Bassia scoparia, post-emergence
Method in brief: as §2

corn = assay: Test A preemergence; format: in vivo, Zea mays; conditions: Zea mays, pre-emergence, 240 h, 0 to 100 scale where 0 is no effect and 100 is complete control
Method in brief: as §1

wheat = assay: Test A postemergence; format: in vivo, Triticum aestivum; conditions: Triticum aestivum, post-emergence, 240 h, 0 to 100 scale where 0 is no effect and 100 is complete control
Method in brief: as §1

velvetleaf [1] = assay: Test A postemergence; format: in vivo, Abutilon theophrasti; conditions: 0 to 100 scale where 0 is no effect and 100 is complete control
Method in brief: as §1

barnyardgrass [2] = assay: Test C preemergence; format: in vivo, Echinochloa crus-galli; conditions: Echinochloa crus-galli, pre-emergence
Method in brief: as §2

barnyardgrass [3] = assay: Test B flooded paddy test; format: in vivo, Echinochloa crus-galli; conditions: Echinochloa crus-galli; Flood, 250 g ai/ha; 0 to 100 scale where 0 is no effect and 100 is complete control; read-out: Plant response rating, Barnyardgrass
Method in brief: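 Flooded to 3 cm at the 2-leaf stage, pots received compound through the paddy water and were kept at that depth under greenhouse conditions. After 13–15 days, effect was rated by eye relative to controls, 0 = none and 100 = complete control.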

velvetleaf [4] = assay: Test A preemergence; format: in vivo, Abutilon theophrasti
Method in brief: as §1

morningglory [5] = assay: Test C postemergence; format: in vivo, Ipomoea coccinea
Method in brief: as §2

Italian ryegrass = assay: Test C postemergence; format: in vivo, Lolium multiflorum
Method in brief: as §2

wheat, winter = assay: Test C preemergence; format: in vivo, Triticum aestivum; conditions: Triticum aestivum, pre-emergence, preemergence, read-out: Wheat plant response rating
Method in brief: as §2

pigweed [6] = assay: Test C postemergence; format: in vivo, Amaranthus retroflexus
Method in brief: as §2

pigweed [7] = assay: Test A postemergence; format: in vivo, Amaranthus retroflexus; conditions: Amaranthus retroflexus, post-emergence, 0 to 100 scale where 0 is no effect and 100 is complete control
Method in brief: as §1

large (Lg) crabgrass = assay: Test A postemergence; format: in vivo, Digitaria sanguinalis; conditions: 0 to 100 scale where 0 is no effect and 100 is complete control
Method in brief: as §1

morningglory [8] = assay: Test A preemergence; format: in vivo, Ipomoea spp.
Method in brief: as §1

[9] = 16 g ai/ha, scale 0 to 100 (0 no effect, 100 complete control)
[10] = 62 g ai/ha, scale 0 (no effect) to 100 (complete control)
[11] = 125 g ai/ha, scale 0 (no effect) to 100 (complete control)
[12] = 31 g ai/ha, postemergence, visual rating, scale 0 to 100 (0 no effect, 100 complete control), 13 to 15 days

FC(F)(F)c1cn(-c2ccccc2Oc2ncc(Cl)cn2)nn1 [Compound 166, 5-chloro-2-[2-[4-(trifluoromethyl)-1H-1,2,3-triazol-1-yl]phenoxy]pyrimidine]
pest or weed control at 125 g/ha (giant foxtail; 125 g ai/ha, read-out: Plant response rating, Foxtail, Giant): 100%
pest or weed control at 500 g/ha (giant foxtail; 500 g ai/ha, read-out: Foxtail, Giant plant response rating): 100%
pest or weed control at 16 g/ha (lambsquarters; [9]): 90%
pest or weed control at 62 g/ha (lambsquarters; [10]): 98%
pest or weed control at 125 g/ha (lambsquarters; [11]): 98%
pest or weed control at 16 g/ha (kochia; 16 g ai/ha, postemergence, 0 is no effect, 100 is complete control, read-out: Plant response rating (0 to 100), Kochia): 90%
pest or weed control at 31 g/ha (kochia; 31 g ai/ha, postemergence, visual rating, scale 0 to 100 (0 no effect, 100 complete control), 13 to 15 days, read-out: Kochia plant response rating): 90%
pest or weed control at 125 g/ha (kochia; 125 g ai/ha, postemergence, visual rating, scale 0 to 100 (0 no effect, 100 complete control), read-out: Plant response rating, Kochia): 100%
pest or weed control at 62 g/ha (kochia; Postemergence, 62 g ai/ha, scale 0 to 100 (0 no effect, 100 complete control), read-out: Plant response rating, Kochia): 90%
Corn plant response rating (crop injury, 0 = no effect, 100 = complete kill) at 125 g/ha (corn; 125 g ai/ha): 30%
plant injury at 500 g/ha (corn; 500 g ai/ha, read-out: Corn plant response rating): 30%
plant injury at 125 g/ha (wheat; 125 g ai/ha, read-out: Wheat plant response rating): 60%
plant injury at 500 g/ha (wheat; 500 g ai/ha, read-out: Plant response rating, Wheat): 70%
Velvetleaf plant response rating (velvetleaf [1]; 125 g ai/ha): 100
pest or weed control at 500 g/ha (velvetleaf [1]; Abutilon theophrasti, post-emergence, 240 h, 500 g ai/ha, read-out: Plant response rating, Velvetleaf): 100%
pest or weed control at 16 g/ha (barnyardgrass [2]; 16 g ai/ha, preemergence, scale 0 to 100 (0 no effect, 100 complete control), read-out: Barnyardgrass plant response rating): 85%
pest or weed control at 62 g/ha (barnyardgrass [2]; 62 g ai/ha, preemergence, scale 0 (no effect) to 100 (complete control), read-out: Barnyardgrass plant response rating): 100%
pest or weed control at 125 g/ha (barnyardgrass [2]; 125 g ai/ha, preemergence, scale 0 (no effect) to 100 (complete control), read-out: Barnyardgrass plant response rating): 100%
pest or weed control at 31 g/ha (barnyardgrass [2]; Preemergence, 31 g ai/ha, scale 0 to 100, 0 no effect, 100 complete control, read-out: Plant response rating, Barnyardgrass): 100%
pest or weed control at 250 g/ha (barnyardgrass [3]): 60%
Velvetleaf plant response rating (0 to 100 scale) (velvetleaf [4]; 125 g ai/ha): 100
pest or weed control at 500 g/ha (velvetleaf [4]; Abutilon theophrasti, pre-emergence, 240 h, 500 g ai/ha, 0 to 100 scale where 0 is no effect and 100 is complete control, read-out: Velvetleaf plant response rating): 100%
Morningglory plant response rating (morningglory [5]; [12]): 70
pest or weed control at 16 g/ha (morningglory [5]; Ipomoea, post-emergence, 16 g ai/ha, postemergence, 0 is no effect, 100 is complete control, read-out: Plant response rating (0 to 100), Morningglory): 85%
pest or weed control at 125 g/ha (morningglory [5]; Ipomoea, post-emergence, 125 g ai/ha, postemergence, visual rating, scale 0 to 100 (0 no effect, 100 complete control), read-out: Plant response rating, Morningglory): 95%
pest or weed control at 62 g/ha (morningglory [5]; Ipomoea, post-emergence, Postemergence, 62 g ai/ha, scale 0 to 100 (0 no effect, 100 complete control), read-out: Plant response rating, Morningglory): 85%
Ryegrass, Italian plant response rating (Italian ryegrass; [12]): 5
pest or weed control at 16 g/ha (Italian ryegrass; Lolium multiflorum, post-emergence, 16 g ai/ha, postemergence, 0 is no effect, 100 is complete control, read-out: Plant response rating (0 to 100), Ryegrass, Italian): 0%
pest or weed control at 125 g/ha (Italian ryegrass; Lolium multiflorum, post-emergence, 125 g ai/ha, postemergence, visual rating, scale 0 to 100 (0 no effect, 100 complete control), read-out: Plant response rating, Ryegrass, Italian): 30%
pest or weed control at 62 g/ha (Italian ryegrass; Lolium multiflorum, post-emergence, Postemergence, 62 g ai/ha, scale 0 to 100 (0 no effect, 100 complete control), read-out: Plant response rating, Ryegrass, Italian): 15%
plant injury at 16 g/ha (wheat, winter; [9]): 0%
plant injury at 62 g/ha (wheat, winter; [10]): 60%
plant injury at 125 g/ha (wheat, winter; [11]): 90%
Pigweed plant response rating (pigweed [6]; [12]): 85
pest or weed control at 16 g/ha (pigweed [6]; Amaranthus retroflexus, post-emergence, 16 g ai/ha, postemergence, 0 is no effect, 100 is complete control, read-out: Plant response rating (0 to 100), Pigweed): 80%
pest or weed control at 125 g/ha (pigweed [6]; Amaranthus retroflexus, post-emergence, 125 g ai/ha, postemergence, visual rating, scale 0 to 100 (0 no effect, 100 complete control), read-out: Plant response rating, Pigweed): 98%
pest or weed control at 62 g/ha (pigweed [6]; Amaranthus retroflexus, post-emergence, Postemergence, 62 g ai/ha, scale 0 to 100 (0 no effect, 100 complete control), read-out: Plant response rating, Pigweed): 90%
pest or weed control at 500 g/ha (pigweed [7]; 500 g ai/ha, read-out: Plant response rating, Pigweed): 100%
pest or weed control at 125 g/ha (pigweed [7]; 240 h, 125 g ai/ha, read-out: Pigweed plant response rating): 100%
Crabgrass, Large plant response rating (large (Lg) crabgrass; 125 g ai/ha): 90
pest or weed control at 500 g/ha (large (Lg) crabgrass; Digitaria sanguinalis, post-emergence, 240 h, 500 g ai/ha, read-out: Plant response rating, Crabgrass, Large): 100%
Morningglory plant response rating (0 to 100 scale) (morningglory [8]; 125 g ai/ha): 100
pest or weed control at 500 g/ha (morningglory [8]; Ipomoea, pre-emergence, 240 h, 500 g ai/ha, 0 to 100 scale where 0 is no effect and 100 is complete control, read-out: Morningglory plant response rating): 100%
